Species on record: Rattus norvegicus
Test: Open TG-GATES - Regimen: Daily Repeat
Assay type: toxicity, organism-based, Sprague-Dawley
Parameters: regimen Daily Repeat, gender Male, age 6 weeks
Conditions: in vivo, po, 0 mg/kg, route gavage, dose level Control; for APTT / Bas / Eos / Fbg / Hb / Ht / Lym / MCH / MCV / Mono / Neu / PT / Plat / RBC / Ret / WBC / MCHC: tissue Blood
[1] = 72 h, tissue Kidney, time 3 day
[2] = 72 h, tissue Plasma, time 3 day

## CCOc1ccc(NC(C)=O)cc1 [PHENACETIN]
72 h, time 3 day
  TERMINAL_BW: 242.4 g
  APTT: 16.7 s
  Bas: 0%
  Eos: 1%
  Fbg: 299.2 mg/dL
  Hb: 13.2 g/dL
  Ht: 39.8%
  Lym: 71.2%
  MCH: 21.1 pg
  MCV: 63.4 fL
  Mono: 2.8%
  Neu: 24.4%
  PT: 13.2 s
  Plat: 121.2 x10_4/uL
  RBC: 628.2 x10_4/ul
  Ret: 6.6%
  WBC: 85.4 x10_2/uL
[1]
  KIDNEY_L: 1 g
  KIDNEY_R: 1 g
  KIDNEY_TOTAL: 2 g
72 h, tissue Liver, time 3 day
  LIVER: 11.5 g
[2]
  ALP: 2120 IU/L
  ALT: 37.8 IU/L
  AST: 67.2 IU/L
  CRE: 0.2 mg/dL
  Ca: 11.1 mg/dL
  Cl: 105.6 meq/L
  DBIL: 0.004 mg/dL
  GLC: 176.6 mg/dL
  IP: 7.2 mg/dL
  K: 4.2 meq/L
  LDH: 118.6 IU/L
  Na: 143.8 meq/L
  PL: 171 mg/dL
  RALB: 2.6 g/dL
  TBIL: 0.04 mg/dL
  TC: 85.8 mg/dL
  TG: 102.4 mg/dL
  TP: 5.7 g/dL
  gamma-GTP: 1 IU/L
[…], time 7 day
  TERMINAL_BW: 272.4 g
  APTT: 17.7 s
  Bas: 0%
  Eos: 1.4%
  Fbg: 300.2 mg/dL
  Hb: 13.9 g/dL
  Ht: 41.1%
  Lym: 78.6%
  MCH: 21.2 pg
  MCHC: 33.8%
  MCV: 62.6 fL
  Mono: 2.6%
  PT: 13.5 s
  Plat: 118.8 x10_4/uL
  RBC: 656.2 x10_4/ul
  Ret: 5.4%
  WBC: 93.4 x10_2/uL
[…], time 14 day
  TERMINAL_BW: 332.8 g
  APTT: 17.5 s
  Bas: 0%
  Eos: 1.4%
  Fbg: 320.2 mg/dL
  Hb: 14.3 g/dL
  Ht: 42.1%
  Lym: 75%
  MCH: 19.9 pg
  MCHC: 34%
  MCV: 58.6 fL
  Mono: 2.6%
  Neu: 20.6%
  PT: 13.3 s
  Plat: 117.7 x10_4/uL
  RBC: 720.4 x10_4/ul
  Ret: 4.1%
  WBC: 108.4 x10_2/uL
[…], time 28 day
  TERMINAL_BW: 424.6 g
  APTT: 23 s
  Bas: 0%
  Eos: 1.4%
